These results are taken from ChEMBL document CHEMBL4387706, “Discovery of Novel Spiroindoline Derivatives as Selective Tankyrase Inhibitors” (J Med Chem, 2019).

Data set [1] is filed under the species Homo sapiens. Nature of the data set: Effect on hippo signaling protein in human COLO320DM cells assessed as change in CTGF expression at 0.033 to 1 uM measured after 48 hrs by RT-PCR analysis. The format is cell-based.
Data set [2] is described as follows: Toxicity in mouse xenografted with human COLO320DM cells assessed as body weight loss at 150 mg/kg, ip administered twice daily for 11 days. Format: organism-based. The settings on record: in vivo, 264 h.
Data set [3] concerns the target Glutamate NMDA receptor (Rattus norvegicus) (UniProt P35439+Q00959+Q00960+Q00961+Q62645+Q8VHN2+Q9R1M7). Nature of the data set: Displacement of [3H]CGP-39653 from NMDA receptor in Wistar rat cerebral cortex at 10 uM measured after 20 mins by scintillation counting method relative to control.
For data set [4], the target named is 5-hydroxytryptamine receptor 1B (Homo sapiens) (UniProt P28222). In words: Displacement of [3H]GR125743 from full-length recombinant human 5HT1B receptor expressed in human Chem1 cells at 10 uM measured after 90 mins by scintillation counting method relative to control. The format is cell-based.
In data set [5] the target is Histamine H1 receptor (Homo sapiens) (UniProt P35367). In words: Displacement of [3H]pyrilamine from full-length recombinant human H1 receptor expressed in CHOK1 cells at 10 uM measured after 180 mins by scintillation counting method relative to control. The format is cell-based.
Data set [6] has as its target 5-hydroxytryptamine receptor 2B (Homo sapiens) (UniProt P41595). In words: Displacement of [3H]LSD from full-length recombinant human 5HT2B receptor expressed in CHOK1 cells at 10 uM measured after 60 mins by scintillation counting method relative to control. Format: cell-based.
In data set [7] the target is Muscarinic acetylcholine receptor M2 (Homo sapiens) (UniProt P08172). In words: Displacement of [3H]N-Methylscopolamine from full-length recombinant human M2 receptor expressed in CHOK1 cells at 10 uM measured after 120 mins by scintillation counting method relative to control. The format is cell-based.
In data set [8] the target is Alpha-1A adrenergic receptor (Rattus norvegicus) (UniProt P43140). Nature of the data set: Displacement of [3H]prazosin from alpha1A receptor in Wistar rat submaxillary gland membranes at 10 uM measured after 60 mins by scintillation counting method relative to control. Format: cell membranes.
For data set [9], the species on record is Homo sapiens. Nature of the data set: Effect on hippo signaling protein in human COLO320DM cells assessed as change in AMOTL2 expression at 0.033 to 1 uM measured after 48 hrs by RT-PCR analysis. The format is cell-based.
For data set [10], the target named is D(1A) dopamine receptor (Homo sapiens) (UniProt P21728). Nature of the data set: Displacement of [3H]SCH-23390 from full-length recombinant human D1 receptor expressed in CHO cells at 10 uM measured after 120 mins by scintillation counting method relative to control. The format is cell-based.
Data set [11] in a line: Half life in ICR mouse at 50 mg/kg, ip. Format: ADME, organism-based. Particulars: in vivo.
Data set [12] addresses Neuronal acetylcholine receptor; alpha4/beta2 (Homo sapiens) (UniProt P17787+P43681). In words: Displacement of [3H]cytisine from full-length recombinant human alpha4/beta2 nACHR expressed in human SH-SY5Y cells at 10 uM measured after 120 mins by scintillation counting method relative to control. Format: cell-based.
The species entered for another data set is Rattus norvegicus. Nature of the data set: Displacement of [125I]a-dendrotoxin from voltage-gated potassium channel in Wistar rat cerebral cortex at 10 uM measured after 60 mins by scintillation counting method relative to control.
For data set [13], the target named is Tankyrase 1/2 (Homo sapiens) (UniProt Q9H2K2+O95271). In words: Inhibition of TNKS/TNKS2-mediated beta-catenin signaling in human COLO320DM cells assessed as down regulation of TCF7 mRNA expression at 0.033 to 1 uM measured after 48 hrs by RT-PCR analysis. Format: cell-based.
Data set [14] addresses GABA-A receptor; anion channel (Rattus norvegicus) (UniProt O09028+P15431+P18506+P18508+P19969+P20236+P23574+P23576+P28471+P28473+P30191+P62813+P63079+P63138+Q91ZM7+Q9ES14). Nature of the data set: Displacement of [3H]flunitrazepam from GABAA receptor in Wistar rat brain at 10 uM measured after 60 mins by scintillation counting method relative to control. The format is tissue-based.

Data set [15] deals with Kappa-type opioid receptor (Homo sapiens) (UniProt P41145). In words: Displacement of [3H]diprenorphine from full-length recombinant human KOR expressed in HEK293 cells at 10 uM measured after 60 mins by scintillation counting method relative to control. The format is cell-based.
The target of data set [16] is Cannabinoid receptor 1 (Homo sapiens) (UniProt P21554). Nature of the data set: Displacement of [3H]SR141716A from full-length recombinant human CB1 receptor expressed in human Chem1 cells at 10 uM measured after 60 mins by scintillation counting method relative to control. Format: cell-based.
Data set [17] deals with Mu-type opioid receptor (Homo sapiens) (UniProt P35372). In words: Displacement of [3H]diprenorphine from full-length recombinant human MOR expressed in CHOK1 cells at 10 uM measured after 60 mins by scintillation counting method relative to control. The format is cell-based.

The source made the active and inactive calls. The rule behind the calls is not given here. Where only a bound is given, the exact number is not on record here.

Chain of D(1A) dopamine receptor (Homo sapiens) (P21728 whole entry): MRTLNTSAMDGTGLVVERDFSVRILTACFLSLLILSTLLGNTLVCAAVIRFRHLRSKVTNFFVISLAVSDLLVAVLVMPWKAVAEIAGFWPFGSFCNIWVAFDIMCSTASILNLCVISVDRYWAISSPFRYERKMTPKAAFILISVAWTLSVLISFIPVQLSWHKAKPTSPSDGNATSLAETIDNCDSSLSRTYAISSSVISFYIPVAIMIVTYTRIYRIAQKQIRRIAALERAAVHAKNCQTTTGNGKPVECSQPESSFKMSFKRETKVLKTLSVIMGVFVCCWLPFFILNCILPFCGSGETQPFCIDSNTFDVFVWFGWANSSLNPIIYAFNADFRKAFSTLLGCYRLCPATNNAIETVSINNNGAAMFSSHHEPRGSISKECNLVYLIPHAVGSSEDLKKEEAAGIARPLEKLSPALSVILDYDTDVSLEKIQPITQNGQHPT
Chain of Mu-type opioid receptor (Homo sapiens) (P35372 whole entry): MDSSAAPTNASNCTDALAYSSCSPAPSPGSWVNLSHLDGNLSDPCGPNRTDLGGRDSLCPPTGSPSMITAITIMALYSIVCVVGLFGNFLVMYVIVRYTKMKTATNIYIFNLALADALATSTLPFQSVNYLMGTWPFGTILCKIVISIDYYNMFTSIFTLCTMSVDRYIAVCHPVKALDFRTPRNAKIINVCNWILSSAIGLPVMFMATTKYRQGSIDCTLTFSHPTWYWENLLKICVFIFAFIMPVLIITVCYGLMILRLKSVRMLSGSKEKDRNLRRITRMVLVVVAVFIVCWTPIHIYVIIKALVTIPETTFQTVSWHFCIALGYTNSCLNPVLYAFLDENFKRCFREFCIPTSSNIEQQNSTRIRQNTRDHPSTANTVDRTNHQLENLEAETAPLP
Chain of 5-hydroxytryptamine receptor 1B (Homo sapiens) (P28222 whole entry): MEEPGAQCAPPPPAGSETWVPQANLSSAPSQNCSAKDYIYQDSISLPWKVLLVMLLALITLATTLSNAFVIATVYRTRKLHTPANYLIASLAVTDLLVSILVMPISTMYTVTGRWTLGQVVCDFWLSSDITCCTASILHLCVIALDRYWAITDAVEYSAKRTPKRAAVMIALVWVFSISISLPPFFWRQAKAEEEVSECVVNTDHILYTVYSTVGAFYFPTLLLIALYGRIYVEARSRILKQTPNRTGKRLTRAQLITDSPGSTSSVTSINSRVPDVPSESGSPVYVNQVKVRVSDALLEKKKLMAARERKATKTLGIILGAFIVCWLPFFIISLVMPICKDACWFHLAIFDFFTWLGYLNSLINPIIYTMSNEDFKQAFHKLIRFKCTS
Chain of Alpha-1A adrenergic receptor (Rattus norvegicus) (P43140 whole entry): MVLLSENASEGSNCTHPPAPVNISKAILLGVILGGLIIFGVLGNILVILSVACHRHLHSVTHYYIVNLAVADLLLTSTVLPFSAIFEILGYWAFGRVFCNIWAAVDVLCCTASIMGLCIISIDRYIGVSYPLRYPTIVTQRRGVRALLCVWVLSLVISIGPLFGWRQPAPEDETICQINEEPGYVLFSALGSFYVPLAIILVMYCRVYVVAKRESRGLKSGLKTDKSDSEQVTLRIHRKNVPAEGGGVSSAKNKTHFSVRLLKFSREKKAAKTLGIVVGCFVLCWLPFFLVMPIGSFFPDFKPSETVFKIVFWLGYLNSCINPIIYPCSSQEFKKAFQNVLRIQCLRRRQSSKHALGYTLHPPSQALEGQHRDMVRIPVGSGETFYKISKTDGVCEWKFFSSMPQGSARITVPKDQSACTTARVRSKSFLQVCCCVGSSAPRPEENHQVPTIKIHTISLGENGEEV
Chain of Muscarinic acetylcholine receptor M2 (Homo sapiens) (P08172 whole entry): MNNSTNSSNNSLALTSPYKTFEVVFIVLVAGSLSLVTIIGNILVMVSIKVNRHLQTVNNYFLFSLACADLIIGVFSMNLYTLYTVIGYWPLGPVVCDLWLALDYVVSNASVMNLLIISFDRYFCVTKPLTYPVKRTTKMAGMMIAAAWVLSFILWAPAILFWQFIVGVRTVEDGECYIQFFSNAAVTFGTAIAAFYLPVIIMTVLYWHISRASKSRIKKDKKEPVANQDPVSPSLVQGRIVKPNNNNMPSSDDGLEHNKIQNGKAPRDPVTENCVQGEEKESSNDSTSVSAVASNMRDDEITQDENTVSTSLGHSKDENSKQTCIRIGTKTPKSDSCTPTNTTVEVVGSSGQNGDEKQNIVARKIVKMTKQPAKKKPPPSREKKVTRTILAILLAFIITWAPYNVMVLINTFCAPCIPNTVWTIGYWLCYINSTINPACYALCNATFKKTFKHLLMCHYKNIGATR
Chain of Cannabinoid receptor 1 (Homo sapiens) (P21554 whole entry): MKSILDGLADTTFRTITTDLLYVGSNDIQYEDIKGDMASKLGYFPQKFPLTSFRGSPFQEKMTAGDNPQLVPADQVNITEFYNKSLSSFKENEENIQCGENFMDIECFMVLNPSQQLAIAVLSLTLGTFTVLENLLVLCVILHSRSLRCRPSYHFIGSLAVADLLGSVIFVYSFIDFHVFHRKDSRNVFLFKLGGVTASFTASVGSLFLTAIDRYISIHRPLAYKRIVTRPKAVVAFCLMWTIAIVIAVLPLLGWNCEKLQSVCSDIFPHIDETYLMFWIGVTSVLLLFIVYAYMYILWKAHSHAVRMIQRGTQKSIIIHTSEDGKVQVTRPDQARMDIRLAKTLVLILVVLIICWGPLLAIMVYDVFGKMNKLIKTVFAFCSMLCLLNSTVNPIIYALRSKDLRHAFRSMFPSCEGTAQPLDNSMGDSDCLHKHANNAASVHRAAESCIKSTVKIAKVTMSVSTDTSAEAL
Chain of Histamine H1 receptor (Homo sapiens) (P35367 whole entry): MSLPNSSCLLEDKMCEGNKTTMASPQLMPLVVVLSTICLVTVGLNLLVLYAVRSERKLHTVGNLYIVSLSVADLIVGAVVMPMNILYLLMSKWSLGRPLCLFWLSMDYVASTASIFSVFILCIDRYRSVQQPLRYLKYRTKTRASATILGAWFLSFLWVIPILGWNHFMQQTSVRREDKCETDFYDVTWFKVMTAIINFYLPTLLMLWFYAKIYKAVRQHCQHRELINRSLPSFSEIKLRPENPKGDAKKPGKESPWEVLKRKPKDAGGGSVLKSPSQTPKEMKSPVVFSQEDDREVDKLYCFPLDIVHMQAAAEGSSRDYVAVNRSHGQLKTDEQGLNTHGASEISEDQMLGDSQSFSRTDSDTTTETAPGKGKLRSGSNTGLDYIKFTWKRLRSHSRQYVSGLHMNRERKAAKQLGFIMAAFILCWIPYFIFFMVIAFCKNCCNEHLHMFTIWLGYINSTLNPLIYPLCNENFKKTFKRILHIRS
Chain of Kappa-type opioid receptor (Homo sapiens) (P41145 whole entry): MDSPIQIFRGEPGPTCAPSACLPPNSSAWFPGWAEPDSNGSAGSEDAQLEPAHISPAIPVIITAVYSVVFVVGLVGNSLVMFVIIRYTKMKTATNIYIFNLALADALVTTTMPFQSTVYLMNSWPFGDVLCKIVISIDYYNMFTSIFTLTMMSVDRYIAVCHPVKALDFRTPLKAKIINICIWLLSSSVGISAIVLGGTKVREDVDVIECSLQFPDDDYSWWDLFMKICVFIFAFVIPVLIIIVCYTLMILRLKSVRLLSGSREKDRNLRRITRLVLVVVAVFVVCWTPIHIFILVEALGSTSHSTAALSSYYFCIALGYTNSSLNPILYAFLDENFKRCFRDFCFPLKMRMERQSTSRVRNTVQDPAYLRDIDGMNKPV
Chain of 5-hydroxytryptamine receptor 2B (Homo sapiens) (P41595 whole entry): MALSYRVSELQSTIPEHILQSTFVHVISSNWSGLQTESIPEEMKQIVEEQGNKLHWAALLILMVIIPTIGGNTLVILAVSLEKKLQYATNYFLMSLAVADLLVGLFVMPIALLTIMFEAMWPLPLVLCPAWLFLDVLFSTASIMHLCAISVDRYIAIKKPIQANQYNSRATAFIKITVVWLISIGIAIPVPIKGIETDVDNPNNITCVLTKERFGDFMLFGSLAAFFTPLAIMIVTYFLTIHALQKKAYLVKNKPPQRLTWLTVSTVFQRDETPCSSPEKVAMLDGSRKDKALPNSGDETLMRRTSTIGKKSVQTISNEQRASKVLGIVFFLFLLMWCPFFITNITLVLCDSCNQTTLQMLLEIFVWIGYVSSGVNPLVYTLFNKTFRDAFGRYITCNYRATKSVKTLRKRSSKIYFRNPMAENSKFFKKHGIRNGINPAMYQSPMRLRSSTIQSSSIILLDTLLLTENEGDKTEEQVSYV

Regarding `O=c1[nH]c(N2CCC3(CC2)CN(CCO)c2cc(F)cc(F)c23)nc2c1CCCC2`, the result in the data set listed under Homo sapiens [1] and in the data set listed under Homo sapiens [9] was inactive. The Activity entry in data set [2] is reported as “Non-Toxic”. The inhibition in data set [3], in [4], in data set [5], in [6], in data set [7] and in [8] was greater than 20% in each case. For the same compound, the inhibition (in data set [10]; in [12]; in the data set filed under Rattus norvegicus; in data set [14]; in data set [15]; in data set [16]) was greater than 20% in each case. In [17], the inhibition was greater than 20%. The same compound gave a half-life in [11] of 168 min. In data set [13], the inhibition result was “Active”.
